Assay [1] relates to castrated C57/B16J male mice. The assay can be described thus: Model of osteoporosis in male mice (trabecular BMD of tibia). As to conditions: Mus musculus, sc, 672 h, ORX mice, 30 mg/kg subcutaneously daily, day 1 to 28, ORX = 0%, SHAM = 100%, read-out: efficacy in protecting mineral bone density. It is filed as in vivo. As for the experimental part: C57/B16J male mice aged 12 weeks and weighing approximately 20-25 g (Charles River, Les Oncins, FRANCE) were operated on as described above with regard to the rats. Castration mimicked the bone loss caused by androgen deficit. The aim of the study is to evaluate the capacity of the compounds to preserve and/or increase the bone mass. This is evaluated by measuring the bone mineral density (BMD). This model has previously been documented by Sims et al. 2003 J. Clin. Invest. 111(9):1319-27.
The animals were separated randomly into various groups and were kept in an environment at 22±2° C. with an alternating day/night cycle of 12 hours and ad libitum access to food and drink.
The tested compounds were administered from post-surgery day 1 and until day 28 preceding sacrifice (day 29). The mice were treated daily under the conditions defined below: • 1. SHAM control group: Vehicle (10/90 ethanol/corn oil mixture) administered subcutaneously. • 2. ORX control group: Vehicle (10/90 ethanol/corn oil mixture) administered subcutaneously. • 3. Treated ORX group: The tested compounds were administered individually subcutaneously in the vehicle described above, in a dose of 30 mg/kg.
During necropsy, the mice were first weighed then decapitated. The two hindlimbs were then carefully disarticulated at the femoral neck. The right hindlimb was frozen at −20° C. Densitometric quantitative analysis was performed on the trabecular portion of the tibia proximal metaphysis using a tomo densitometer (Stratec SA+, Hologic, Norland).
The average of the trabecular BMD of the mice in the ORX control group was defined as 0%. The average of the trabecular BMD of the mice in the SHAM control group was defined as 100%. The efficacy of each product as a percentage was calculated using the formula: (BMDtreated−BMDORX)/(BMDSHAM−BMDORX)×100
A subsequent ANOVA test was used for statistical analysis to identify the differences between groups.

The target of assay [2] is T1, human androgen receptor (hAR) (Homo sapiens, UniProt P10275).
T1 sequence (P10275 1-920): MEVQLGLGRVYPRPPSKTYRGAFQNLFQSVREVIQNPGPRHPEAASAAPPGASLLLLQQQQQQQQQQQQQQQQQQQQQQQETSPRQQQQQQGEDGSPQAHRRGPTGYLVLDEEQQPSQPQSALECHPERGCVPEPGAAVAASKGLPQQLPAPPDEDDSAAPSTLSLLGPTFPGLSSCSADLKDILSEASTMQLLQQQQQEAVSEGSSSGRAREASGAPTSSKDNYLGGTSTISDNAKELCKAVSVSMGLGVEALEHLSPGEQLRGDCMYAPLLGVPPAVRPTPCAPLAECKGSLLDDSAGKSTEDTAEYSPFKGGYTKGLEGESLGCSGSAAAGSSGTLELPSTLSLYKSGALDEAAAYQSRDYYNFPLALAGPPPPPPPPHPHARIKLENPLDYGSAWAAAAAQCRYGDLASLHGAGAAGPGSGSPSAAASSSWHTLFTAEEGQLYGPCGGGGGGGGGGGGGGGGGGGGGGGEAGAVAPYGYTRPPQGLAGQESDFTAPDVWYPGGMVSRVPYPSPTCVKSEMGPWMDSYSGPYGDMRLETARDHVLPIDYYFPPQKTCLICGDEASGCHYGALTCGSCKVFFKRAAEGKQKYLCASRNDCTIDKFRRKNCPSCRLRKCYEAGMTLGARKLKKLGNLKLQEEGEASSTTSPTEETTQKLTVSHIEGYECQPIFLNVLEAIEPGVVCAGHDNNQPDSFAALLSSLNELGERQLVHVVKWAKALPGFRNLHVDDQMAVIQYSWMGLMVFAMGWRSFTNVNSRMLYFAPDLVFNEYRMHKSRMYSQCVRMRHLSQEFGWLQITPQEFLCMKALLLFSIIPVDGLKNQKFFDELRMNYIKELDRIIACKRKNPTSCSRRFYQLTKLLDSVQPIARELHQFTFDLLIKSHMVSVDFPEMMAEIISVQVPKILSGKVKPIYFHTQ
Kind of assay: Functional response test: hAR transactivation (luciferase reporter) in HALP2 cells. It is filed as cell-based. The method, boiled down:
(§1)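 HALP2 cells are HeLa cells stably transfected with CMV-driven hAR and a probasin ARE-luciferase reporter. They were seeded 24 h ahead, then exposed to compounds for 20 hours at 37° C in phenol red-free DMEM with 5% desteroided serum. Luciferase luminescence was measured after lysis; for antagonist mode, compounds were tested against increasing DHT concentrations.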

Assay [3] deals with castrated immature young rats. Kind of assay: Adapted model of Hershberger's test (levator ani and ventral prostate weight). In kind it is in vivo, Sprague Dawley rats. As to conditions: Rattus norvegicus, po, 96 h. As for the experimental part:
The selective modulating activity of the androgen receptor was tested in a model of castrated immature young rats. This model, which is widely recognised for evaluating the anabolic effects of androgen compounds on the muscles and on the genitalia, has been described by Hershberger et al. 1953 Proc. Soc. Expt. Biol. Med. 83:175.
The method is based on the measurement of the well-known effects of androgens on the growth of the muscles and the accessory male sex organs in animals, and also in men. The consequences of castration appear in the form of a rapid involution and atrophy of the prostate and the seminal vesicles and of the anus-lifting muscle (levator ani). This effect may be completely compensated by an exogeneous administration of androgen, in particular of testosterone. The model is thus used to determine the capacity of the tested molecules to maintain the weight of the accessory sex and muscle organs in immature castrated rats, and therefore their androgenic efficacy.
Immature young Sprague Dawley rats (4 to 5 weeks old) weighing approximately 140-160 g (Charles River, Les Oncins, FRANCE) were distributed randomly in various groups and were kept in an environment at 22±2° C. with an alternating day/night cycle of 12 hours and ad libitum access to food and drink.
On day 0, that is, seven days before commencement of the first treatment, the rats were weighed individually then anaesthetised with an intraperitoneal dose of Ketamine/xylazine (85/15 mg/kg, approximately 2 ml/kg). Each animal was then placed on a sterile field and the abdomen and the scrotum were disinfected with Betadine and 70% alcohol. In the case of the orchidectomised control animals (ORX), the testicles were removed via an incision in the middle of the scrotum. A sterile suture was then made to ligature the supra-testicular portion of the tissue prior to surgical section of each testicle. The groups of animals to be treated by the tested compounds were operated on in an identical manner. In the case of the intact control animals (SHAM), the testicles were similarly extracted and reintroduced delicately to their original location. The site of surgical intervention was then sutured using sterile suture thread, and the site was disinfected again by application of Betadine. Each animal was then kept under a sterile pad until it awoke, before being returned to its cage. The animals were kept in an environment at 22±2° C. with an alternating day/night cycle of 12 hours and ad libitum access to food and drink. The animals were treated with the molecules to be tested from post-surgery day 7 and until day 10 preceding sacrifice (day 11).
The rats were split into groups and treated daily from day 7 to day 10 under the conditions defined below: • 1. SHAM control group: Vehicle (0.5% aqueous methyl cellulose) administered per os. • 2. ORX control group: Vehicle (0.5% aqueous methyl cellulose) administered per os. • 3. Treated ORX group: The tested compounds were administered individually per os in suspension in the vehicle described above, in a dose of 30 mg/kg.
After treatment for 4 successive days, the animals were decapitated using a guillotine. The levator ani and the ventral prostate were removed and weighed individually. For comparing inter-experimental data, the weight of each organ was standardised and expressed in milligrammes per 100 g of the weight of the animal (W). For each organ, the average of the standardised weights of the ORX control group was fixed by definition at 0% and the average of the standardised weights of the SHAM control group was fixed by definition at 100%. The efficacy of each product was expressed as a percentage and calculated using the following formula: (Wtreated−WORX)/(WSHAM−WORX)×100 A subsequent ANOVA test was used for statistical analysis to identify the differences between groups.

Assay [4] deals with human androgen receptor (hAR) (Homo sapiens, UniProt P10275). The assay can be described thus: Functional response test: hAR transactivation (luciferase reporter) in HALP2 cells. It is filed as cell-based. The method, boiled down:
as §1
This is another data set of the same source. In general terms: In a reporter assay the amount or activity of a reporter protein is the signal.

A word on the EC50: it is the concentration at which the effect is half-maximal.

Like-named read-outs stand apart in the source and are kept apart here.

Take `C=CCN1C(=S)N(c2ccc(C#N)c(C(F)(F)F)c2)C(=O)C1(C)c1ccc(O)cc1` (stereo not drawn) [Example 7, 4-[4-(4-hydroxyphenyl)-4-methyl-5-oxo-3-(2-propenyl)-2-thioxoimidazolidin-1-yl]-2-trifluoromethylbenzonitrile]: the inhibition in vivo at 30 mg/kg in assay [1] lay within 40 to 130%. Further, in assay [2], the “KSchild (nM) potency” value is 3.46 nM.
For `Cc1c(N2C(=O)N(C)C(C)(c3ccc(O)cc3)C2=O)ccc(C#N)c1Cl` (stereo not drawn) [Example 8, 2-chloro-4-[3,4-dimethyl-2,5-dioxo-4-(4-hydroxyphenyl)imidazolidin-1-yl]-3-methylbenzonitrile], the values for the inhibition in vivo at 30 mg/kg in assay [3] (read-out: anabolic protection efficacy with regard to levator ani), in assay [3] (read-out: androgenic efficacy with regard to the prostate) and in assay [1] were 50 to 140%, 5 to 70% and 40 to 130%, respectively.
As for `CC1(c2ccc(O)cc2)C(=O)N(c2ccc(Cl)c(Cl)c2)C(=O)N1CCF` (stereo not drawn), the EC50 in assay [4] was determined as 8 nM.
